Test system: 188146-221-R-J1-PDC complex spheroid viability
Experiment: Anticancer human tumor 188146-221-R-J1-PDC patient-derived colon adenocarcinoma cell line growth inhibition [POLQ]
Conditions: for IC50: curve of first compound; for viability, T/C: stronger effect = lower value
Procedure, shortened: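 Growth inhibition in 3D: complex spheroids (tumor PDC, HUVEC, MSC) treated with POLQ inhibitor combinations; where Cmax unknown, highest tested concentration 10 microM, except SN-38 at 1 microM.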

[1] = second compound 0.0316 µM, first compound 0.0316 µM
[2] = second compound 0.0316 µM, first compound 0.1 µM
[3] = second compound 0.0316 µM, first compound 0.316 µM
[4] = second compound 0.0316 µM, first compound 1 µM
[5] = second compound 0.0316 µM, first compound 3.16 µM
[6] = second compound 0.0316 µM, first compound 10 µM
[7] = second compound 0.1 µM, first compound 0.0316 µM
[8] = second compound 0.1 µM, first compound 0.1 µM
[9] = second compound 0.1 µM, first compound 0.316 µM
[10] = second compound 0.1 µM, first compound 1 µM
[11] = second compound 0.1 µM, first compound 3.16 µM
[12] = second compound 0.1 µM, first compound 10 µM
[13] = second compound 0.316 µM, first compound 0.0316 µM
[14] = second compound 0.316 µM, first compound 0.1 µM
[15] = second compound 0.316 µM, first compound 0.316 µM
[16] = second compound 0.316 µM, first compound 1 µM
[17] = second compound 0.316 µM, first compound 3.16 µM
[18] = second compound 0.316 µM, first compound 10 µM
[19] = second compound 1 µM, first compound 0.0316 µM
[20] = second compound 1 µM, first compound 0.1 µM
[21] = second compound 1 µM, first compound 0.316 µM
[22] = second compound 1 µM, first compound 1 µM
[23] = second compound 1 µM, first compound 3.16 µM
[24] = second compound 1 µM, first compound 10 µM
[25] = second compound 3.16 µM, first compound 0.0316 µM
[26] = second compound 3.16 µM, first compound 0.1 µM
[27] = second compound 3.16 µM, first compound 0.316 µM
[28] = second compound 3.16 µM, first compound 1 µM
[29] = second compound 3.16 µM, first compound 3.16 µM
[30] = second compound 3.16 µM, first compound 10 µM
[31] = second compound 10 µM, first compound 0.0316 µM
[32] = second compound 10 µM, first compound 0.1 µM
[33] = second compound 10 µM, first compound 0.316 µM
[34] = second compound 10 µM, first compound 1 µM
[35] = second compound 10 µM, first compound 3.16 µM
[36] = second compound 10 µM, first compound 10 µM
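Further: spheroids exposed to compounds for seven days.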
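Wherever viability, T/C is given: 100% = DMSO vehicle control viability.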

Compound: CCc1cc2c(N3CCc4c(cc(Cn5ccnc5)cc4-c4cn(C)nc4C(F)(F)F)C3=O)cc(C)nc2c(OC)n1 + COC1C(OC(N)=O)C(O)C(Oc2ccc3c(O)c(NC(=O)c4ccc(O)c(CC=C(C)C)c4)c(=O)oc3c2C)OC1(C)C
- IC50 (second compound 0.0316 µM): 7.26 µM
- IC50 (second compound 0.1 µM): > 10 µM
- IC50 (second compound 0.316 µM): 9.01 µM
- IC50 (second compound 1 µM): > 10 µM
- IC50 (second compound 3.16 µM): > 10 µM
- IC50 (second compound 10 µM): 6.16 µM
- viability, T/C [1]: 112%
- viability, T/C [2]: 102%
- viability, T/C [3]: 92.1%
- viability, T/C [4]: 88.1%
- viability, T/C [5]: 66.3%
- viability, T/C [6]: 42.8%
- viability, T/C [7]: 108%
- viability, T/C [8]: 101%
- viability, T/C [9]: 97.7%
- viability, T/C [10]: 85.4%
- viability, T/C [11]: 66.4%
- viability, T/C [12]: 55.9%
- viability, T/C [13]: 106%
- viability, T/C [14]: 108%
- viability, T/C [15]: 105%
- viability, T/C [16]: 83.3%
- viability, T/C [17]: 62.4%
- viability, T/C [18]: 48.2%
- viability, T/C [19]: 108%
- viability, T/C [20]: 108%
- viability, T/C [21]: 101%
- viability, T/C [22]: 83.2%
- viability, T/C [23]: 64.2%
- viability, T/C [24]: 53.2%
- viability, T/C [25]: 104%
- viability, T/C [26]: 114%
- viability, T/C [27]: 103%
- viability, T/C [28]: 89.2%
- viability, T/C [29]: 73.9%
- viability, T/C [30]: 51.1%
- viability, T/C [31]: 97.5%
- viability, T/C [32]: 98%
- viability, T/C [33]: 101%
- viability, T/C [34]: 78.5%
- viability, T/C [35]: 60.2%
- viability, T/C [36]: 43.2%

Compound: CC1COCCN1c1cc(C2(S(C)(=N)=O)CC2)nc(-c2ccnc3[nH]ccc23)n1 (stereo unspecified) + COC1C(OC(N)=O)C(O)C(Oc2ccc3c(O)c(NC(=O)c4ccc(O)c(CC=C(C)C)c4)c(=O)oc3c2C)OC1(C)C
- IC50 (second compound 0.0316 µM): 4.2 µM
- IC50 (second compound 0.1 µM): 4.04 µM
- IC50 (second compound 0.316 µM): 4.05 µM
- IC50 (second compound 1 µM): 4.53 µM
- IC50 (second compound 3.16 µM): 3.45 µM
- IC50 (second compound 10 µM): 3.16 µM
- viability, T/C [1]: 102%
- viability, T/C [2]: 95.8%
- viability, T/C [3]: 98.7%
- viability, T/C [4]: 94.2%
- viability, T/C [5]: 58.6%
- viability, T/C [6]: 23.6%
- viability, T/C [7]: 114%
- viability, T/C [8]: 100%
- viability, T/C [9]: 90.5%
- viability, T/C [10]: 72.5%
- viability, T/C [11]: 62.2%
- viability, T/C [12]: 26.8%
- viability, T/C [13]: 96.2%
- viability, T/C [14]: 97.3%
- viability, T/C [15]: 94.7%
- viability, T/C [16]: 84.8%
- viability, T/C [17]: 56.4%
- viability, T/C [18]: 27%
- viability, T/C [19]: 97.1%
- viability, T/C [20]: 104%
- viability, T/C [21]: 88.6%
- viability, T/C [22]: 87.1%
- viability, T/C [23]: 61.2%
- viability, T/C [24]: 23.9%
- viability, T/C [25]: 101%
- viability, T/C [26]: 100%
- viability, T/C [27]: 84.2%
- viability, T/C [28]: 69.4%
- viability, T/C [29]: 54%
- viability, T/C [30]: 26.8%
- viability, T/C [31]: 102%
- viability, T/C [32]: 88.8%
- viability, T/C [33]: 103%
- viability, T/C [34]: 74.5%
- viability, T/C [35]: 51.9%
- viability, T/C [36]: 24%

Compound: CC1COCCN1c1cc(C2(S(C)(=N)=O)CC2)nc(-c2ccnc3[nH]ccc23)n1 (stereo unspecified) + Nc1ccc(C#CCN(C(=O)Cc2ncc(C(F)(F)F)cc2C(F)(F)F)c2ccc(F)cc2)nn1
- IC50 (second compound 0.0316 µM): 4.63 µM
- IC50 (second compound 0.1 µM): 4.5 µM
- IC50 (second compound 0.316 µM): 4.59 µM
- IC50 (second compound 1 µM): 4.55 µM
- IC50 (second compound 3.16 µM): 4.66 µM
- IC50 (second compound 10 µM): 4.11 µM
- viability, T/C [1]: 105%
- viability, T/C [2]: 110%
- viability, T/C [3]: 95.7%
- viability, T/C [4]: 100%
- viability, T/C [5]: 61.2%
- viability, T/C [6]: 27.2%
- viability, T/C [7]: 106%
- viability, T/C [8]: 92.6%
- viability, T/C [9]: 109%
- viability, T/C [10]: 92.1%
- viability, T/C [11]: 60.5%
- viability, T/C [12]: 26.9%
- viability, T/C [13]: 110%
- viability, T/C [14]: 109%
- viability, T/C [15]: 99.7%
- viability, T/C [16]: 101%
- viability, T/C [17]: 61.9%
- viability, T/C [18]: 24.8%
- viability, T/C [19]: 95.1%
- viability, T/C [20]: 89.7%
- viability, T/C [21]: 111%
- viability, T/C [22]: 89.2%
- viability, T/C [23]: 63.3%
- viability, T/C [24]: 22.2%
- viability, T/C [25]: 103%
- viability, T/C [26]: 109%
- viability, T/C [27]: 93.3%
- viability, T/C [28]: 82.7%
- viability, T/C [29]: 65.3%
- viability, T/C [30]: 24.1%
- viability, T/C [31]: 107%
- viability, T/C [32]: 99.6%
- viability, T/C [33]: 101%
- viability, T/C [34]: 90%
- viability, T/C [35]: 58.1%
- viability, T/C [36]: 22.1%
